For one assay, the target named is T1, CCK-B receptors (Rattus norvegicus, UniProt P30553).
T1 construct: the whole brain was immediately excised from each of the rats and homogenized; from tissue; host or cells: SD rat whole brain membranes
Put plainly: Measurement of binding affinity for CCK-B receptors ([125I]BH-CCK-8, rat brain membranes). Conditions: for IC50: rat brain membranes, [125I]BH-CCK-8, 25° C., 120 minutes, pH 6.5, read-out: Receptor binding affinity IC50, CCK-B; for A/B Ratio: ratio IC50 (CCK-A)/IC50 (CCK-B). Set-up: species or system SD rats. The protocol:
Measurement of binding affinity for CCK-B receptors
About 100 SD rats were decapitated without anaesthesia, the whole brain was immediately excised from each of the rats and homogenized in 10-fold volume of 0.32M aqueous solution of sucrose by the use of a Teflon-coated homogenizer, the homogenate thus obtained was centrifuged for ten minutes at 900 g by the use of a cooled centrifuge, and the supernatant was further centrifuged for 15 minutes at 11500 g. The precipitate thus obtained was dispersed in 50 mM Tris-HCl buffer (pH 7.4) containing 0.08% Triton X-100, this suspension was allowed to stand for 30 minutes and again centrifuged for 15 minutes at 11500 g, the precipitate thus obtained was washed twice with 5 mM Tris-HCl buffer and twice with 50 mM Tris-HCl buffer in that order with centrifugal separation, the washed precipitate was suspended in 50 mM Tris-HCl buffer, and the suspension thus obtained was stored at -80° C. until the membrane preparation was required.
The membrane preparations were warmed to room temperature, diluted with 10 mM HEPES buffer (containing 130 mM NaCl, 5 mM MgCl2, 1 mM EGTA and 0.25 mg/ml bacitracin; pH 6.5) and incubated at 25° C. for 120 minutes in the presence of [^125 I]BH-CCK-8 and the test compound, then separated by suction filtration. Non-specific binding was determined in the presence of 1 μM CCK-8. The amount of labelled ligand bound to the receptor was measured by the use of a γ-counter; IC50 values were determined, being that concentration of test compound required to inhibit specific binding by 50%.
(§1) A high affinity for the CCK-A receptor in a gastrin/CCK-B antagonist is thought to be undesirable as it may lead to side-effects such as cholestasis and gall stone formation during therapy. Therefore it is preferable for the therapeutic agent to be selective for the CCK-B receptor. This selectivity is expressed by the ratio IC50 (CCK-A)/IC50 (CCK-B); the higher the value of this ratio the better is the selectivity.

A further assay has as its target T2, CCK-A receptors (Rattus norvegicus, UniProt P30551).
T2 construct: The pancreas of an SD rat was homogenized; from tissue; host or cells: SD rat pancreas membranes
T2 sequence (P30551 1-444): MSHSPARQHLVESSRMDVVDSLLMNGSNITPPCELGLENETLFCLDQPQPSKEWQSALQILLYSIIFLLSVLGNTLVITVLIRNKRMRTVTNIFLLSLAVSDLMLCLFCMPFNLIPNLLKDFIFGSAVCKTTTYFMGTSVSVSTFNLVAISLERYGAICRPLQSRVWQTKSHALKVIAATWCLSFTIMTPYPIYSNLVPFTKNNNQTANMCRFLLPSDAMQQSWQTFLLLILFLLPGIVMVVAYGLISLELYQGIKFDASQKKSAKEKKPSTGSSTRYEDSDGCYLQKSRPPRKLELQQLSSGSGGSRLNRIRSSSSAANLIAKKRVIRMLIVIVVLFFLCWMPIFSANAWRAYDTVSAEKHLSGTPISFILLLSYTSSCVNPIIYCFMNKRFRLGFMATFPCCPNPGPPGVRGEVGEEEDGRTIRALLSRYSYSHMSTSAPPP
Put plainly: Measurement of binding affinity for CCK-A receptors ([3H]L-364,718, rat pancreas membranes). Set-up: species or system SD rat. Conditions: [3H]L-364,718, 37° C., 30 minutes, read-out: Receptor binding affinity IC50, CCK-A. The protocol:
Measurement of binding affinity for CCK-A receptors
The pancreas of an SD rat was homogenized in a 20-fold volume of 50 mM Tris-HCl buffer (pH 7.7) by the use of a Polytrone-type homogenizer, the homogenate was twice centrifuged for 10 minutes at 50000 g by the use of an ultra-centrifuge, the precipitate thus obtained was suspended in a 40-fold volume of 50 mM Tris-HCl buffer (containing 0.2% BSA, 5 mM MgCl2, 0.1 mg/ml bacitracin and 5 mM DTT; pH 7.7), and the suspension was stored at -80° C. until the membrane preparations were required.
The membrane preparations were then warmed to room temperature, diluted 1:10 with the buffer and incubated at 37° C. for 30 minutes in the presence of [^3 H]L-364,718 and the test compound then separated by suction filtration. Non-specific binding was determined in the presence of 1 μM L-364,718. The amount of labelled ligand bound to the receptor was measured by the use of a liquid scintillation counter; IC50 values were determined, being that concentration of test compound required to inhibit specific binding by 50%
as §1

As usually defined, the IC50 is the concentration at which inhibition is half-maximal.

T1 sequence (P30553 whole entry): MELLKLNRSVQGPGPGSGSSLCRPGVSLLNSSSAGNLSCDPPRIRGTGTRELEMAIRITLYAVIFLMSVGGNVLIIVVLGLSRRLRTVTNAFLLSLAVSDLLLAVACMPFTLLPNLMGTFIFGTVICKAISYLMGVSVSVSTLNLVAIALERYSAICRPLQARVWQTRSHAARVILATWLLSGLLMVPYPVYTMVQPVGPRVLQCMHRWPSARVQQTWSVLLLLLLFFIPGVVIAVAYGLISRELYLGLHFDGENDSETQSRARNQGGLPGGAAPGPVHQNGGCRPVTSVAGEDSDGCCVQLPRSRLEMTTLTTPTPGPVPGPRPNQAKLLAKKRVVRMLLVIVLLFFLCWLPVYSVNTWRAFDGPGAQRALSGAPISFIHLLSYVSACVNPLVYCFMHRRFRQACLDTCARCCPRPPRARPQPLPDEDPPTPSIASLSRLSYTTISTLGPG

For `Cc1cccc(NC(=O)N[C@@H]2N=C(c3ccccc3)c3ccccc3N(C[C@H](O)C3CCCC3)C2=O)c1` [Example 19, N-((3R)-1-((2R)-2-Cyclopentyl-2-hydroxyethyl)-2,3-dihydro-2-oxo-5-phenyl-1H-1,4-benzodiazepin-3-yl)-N'-(3-methylphenyl)urea], on CCK-B receptors, the IC50 came out at 0.92 nM and the “A/B Ratio” value is 1,200. On CCK-A receptors, the IC50 was found to be 1 nM.
For `O=C(Nc1cccc([N+](=O)[O-])c1)NC1N=C(c2ccccc2)c2ccccc2N(CC(=O)C2CCCC2)C1=O` (racemic) [Example 44, N-((3RS)-1-Cyclopentylcarbonylmethyl-2,3-dihydro-2-oxo-5-phenyl-1H-1,4-benzodiazepin-3-yl)-N'-(3-nitrophenyl)urea], at CCK-B receptors, the IC50 amounted to 0.17 nM and the “A/B Ratio” value is given as 9,400. On CCK-A receptors, the IC50 is 1600 nM.
Regarding `CC(C)(C)C(=O)CN1C(=O)C(NC(=O)Nc2cccc([N+](=O)[O-])c2)N=C(c2ccccc2)c2ccccc21` (racemic) [Example 45, N-((3RS)-1-tert-Butylcarbonylmethyl-2,3-dihydro-2-oxo-5-phenyl-1H-1,4-benzodiazepin-3-yl)-N'-(3-nitrophenyl)urea], at CCK-B receptors, the IC50 was 0.16 nM.
Consider `O=C(Nc1cccc(C(=O)O)c1)N[C@@H]1N=C(c2ccccc2)c2ccccc2N(CC(O)C2CCCC2)C1=O` (mixture of isomers) [Example 24, N-((3R)-1-((2RS)-2-Cyclopentyl-2-hydroxyethyl)-2,3-dihydro-2-oxo-5-phenyl-1H-1,4-benzodiazepin-3-yl)-N'-(3-carboxyphenyl)urea], for which, on CCK-B receptors, the IC50 is 0.97 nM and the “A/B Ratio” value is > 10,000. For the same compound, the IC50 on CCK-A receptors is over 10000 nM.
The matching figures for `NC(=O)c1cccc(NC(=O)NC2N=C(c3ccccc3)c3ccccc3N(CC(=O)C3CCCC3)C2=O)c1` (racemic) [Example 35, N-((3RS)-1-Cyclopentylcarbonylmethyl-2,3-dihydro-2-oxo-5-phenyl-1H-1,4-benzodiazepin-3-yl)-N'-(3-carboxamidophenyl)urea]: 1.1 nM, 1,700 and 1900 nM.
The matching figures for `O=C(Nc1cccc(C(=O)O)c1)NC1N=C(c2ccccn2)c2ccccc2N(CC(=O)C2CCCC2)C1=O` (racemic) [Example 22, N-((3RS)-1-Cyclopentylcarbonylmethyl-2,3-dihydro-2-oxo-5-(2-pyridyl)-1H-1,4-benzodiazepin-3-yl)-N'-(3-carboxyphenyl)urea]: 3.5 nM, > 2,900 and over 10000 nM.
As for `Cc1cccc(NC(=O)NC2N=C(c3ccccc3)c3ccccc3N(CC(=O)C3(C)CCCCC3)C2=O)c1` (racemic) [Example 34, N-((3RS)-1-((1-Methylcyclohexyl)carbonylmethyl)-2,3-dihydro-2-oxo-5-phenyl-1H-1,4-benzodiazepin-3-yl)-N'-(3-methylphenyl)urea], the “A/B Ratio” value at CCK-B receptors is > 26,000. The IC50 at CCK-A receptors was over 10000 nM.
Consider `COc1cccc(NC(=O)NC2N=C(c3ccccc3)c3ccccc3N(CC(=O)C3CCCC3)C2=O)c1` (racemic) [Example 42, N-((3RS)-1-Cyclopentylcarbonylmethyl-2,3-dihydro-2-oxo-5-phenyl-1H-1,4-benzodiazepin-3-yl)-N'-(3-methoxyphenyl)urea], for which the figures for the IC50 on CCK-B receptors and on CCK-A receptors were 0.07 nM and 360 nM, respectively. In addition, the “A/B Ratio” value at CCK-B receptors is 5,100.
As for `Cc1cccc(NC(=O)NC2N=C(c3ccccn3)c3ccccc3N(CC(=O)C3CCCC3)C2=O)c1` (racemic) [Example 14, N-((3RS)-1-Cyclopentylcarbonylmethyl-2,3-dihydro-2-oxo-5-(2-pyridyl)-1H-1,4-benzodiazepin-3-yl)-N'-(3-methylphenyl)urea], the “A/B Ratio” value at CCK-B receptors is reported as 22,000.

The values above are taken from US5688943A, “Benzodiazepine derivatives useful as CCK-receptor antagonists” (Yamanouchi Pharmaceutical Co., Ltd., priority 1992, dated 1997).
